Results: ChEMBL document CHEMBL5230103, “Hydroxamic acid hybrids as the potential anticancer agents: An Overview” (Eur J Med Chem, 2020)

Key:
[1] = Cytotoxicity against human HuT 102 cells assessed as inhibition of cell growth by MTT assay; assay type: functional, cell-based
HL-60 = assay: Antiproliferative activity against human HL-60 cells assessed as inhibition of cell growth by MTT assay; assay type: functional, cell-based
ASPC1 [2] = assay: Potency index, ratio of vorinostat IC50 to test compound IC50 for cytotoxicity against human ASPC1 cells assessed as inhibition of cell growth by SRB assay; assay type: functional
SW-620 [3] = assay: Cytotoxicity against human SW620 cells assessed as inhibition of cell growth by SRB assay; assay type: functional, cell-based
PC-3 [4] = assay: Potency index, ratio of vorinostat IC50 to test compound IC50 for cytotoxicity against human PC-3 cells assessed as inhibition of cell growth by SRB assay; assay type: functional
SW-620 [5] = assay: Potency index, ratio of vorinostat IC50 to test compound IC50 for cytotoxicity against human SW620 cells assessed as inhibition of cell growth by SRB assay; assay type: functional
ASPC1 [6] = assay: Cytotoxicity against human ASPC1 cells assessed as inhibition of cell growth by SRB assay; assay type: functional, cell-based
PC-3 [7] = assay: Cytotoxicity against human PC-3 cells assessed as inhibition of cell growth by SRB assay; assay type: functional, cell-based
Histone deacetylase 2 = Histone deacetylase 2 (Homo sapiens, UniProt Q92769); assay: Inhibition of HDAC2 (unknown origin)
Hep 3B2 = assay: Cytotoxicity against human Hep3B cells assessed as inhibition of cell growth by MTT assay; assay type: functional
A549 [8] = assay: Cytotoxicity against human A549 cells assessed as inhibition of cell growth by SRB assay; assay type: functional
Histone deacetylase = assay: Inhibition of HDAC (unknown origin); assay type: protein assay, Homo sapiens
HCT-116 = assay: Cytotoxicity against human HCT-116 cells assessed as inhibition of cell growth by SRB assay; assay type: functional, cell-based
[9] = molecular target: Histone deacetylase (Homo sapiens) (UniProt Q13547+O15379+Q9UBN7+Q92769+Q9UQL6+Q8WUI4+Q9BY41+Q96DB2+P56524+Q9UKV0+Q969S8); assay: Potency index, ratio of vorinostat IC50 to test compound IC50 for inhibition of HDAC (unknown origin); assay type: protein assay
Histone deacetylase 8 = Histone deacetylase 8 (Homo sapiens, UniProt Q9BY41); assay: Inhibition of HDAC8 (unknown origin)
SH-SY5Y = assay: Antiproliferative activity against human SH-SY5Y cells assessed as inhibition of cell growth by MTT assay; assay type: functional, cell-based
Histone deacetylase 3 = Histone deacetylase 3 (Homo sapiens, UniProt O15379); assay: Inhibition of HDAC3 (unknown origin)
[10] = molecular target: T1, Protein deacetylase HDAC6 (Homo sapiens, UniProt Q9UBN7); assay: Inhibition of HDAC6 (unknown origin)
T1 sequence (Q9UBN7 whole entry): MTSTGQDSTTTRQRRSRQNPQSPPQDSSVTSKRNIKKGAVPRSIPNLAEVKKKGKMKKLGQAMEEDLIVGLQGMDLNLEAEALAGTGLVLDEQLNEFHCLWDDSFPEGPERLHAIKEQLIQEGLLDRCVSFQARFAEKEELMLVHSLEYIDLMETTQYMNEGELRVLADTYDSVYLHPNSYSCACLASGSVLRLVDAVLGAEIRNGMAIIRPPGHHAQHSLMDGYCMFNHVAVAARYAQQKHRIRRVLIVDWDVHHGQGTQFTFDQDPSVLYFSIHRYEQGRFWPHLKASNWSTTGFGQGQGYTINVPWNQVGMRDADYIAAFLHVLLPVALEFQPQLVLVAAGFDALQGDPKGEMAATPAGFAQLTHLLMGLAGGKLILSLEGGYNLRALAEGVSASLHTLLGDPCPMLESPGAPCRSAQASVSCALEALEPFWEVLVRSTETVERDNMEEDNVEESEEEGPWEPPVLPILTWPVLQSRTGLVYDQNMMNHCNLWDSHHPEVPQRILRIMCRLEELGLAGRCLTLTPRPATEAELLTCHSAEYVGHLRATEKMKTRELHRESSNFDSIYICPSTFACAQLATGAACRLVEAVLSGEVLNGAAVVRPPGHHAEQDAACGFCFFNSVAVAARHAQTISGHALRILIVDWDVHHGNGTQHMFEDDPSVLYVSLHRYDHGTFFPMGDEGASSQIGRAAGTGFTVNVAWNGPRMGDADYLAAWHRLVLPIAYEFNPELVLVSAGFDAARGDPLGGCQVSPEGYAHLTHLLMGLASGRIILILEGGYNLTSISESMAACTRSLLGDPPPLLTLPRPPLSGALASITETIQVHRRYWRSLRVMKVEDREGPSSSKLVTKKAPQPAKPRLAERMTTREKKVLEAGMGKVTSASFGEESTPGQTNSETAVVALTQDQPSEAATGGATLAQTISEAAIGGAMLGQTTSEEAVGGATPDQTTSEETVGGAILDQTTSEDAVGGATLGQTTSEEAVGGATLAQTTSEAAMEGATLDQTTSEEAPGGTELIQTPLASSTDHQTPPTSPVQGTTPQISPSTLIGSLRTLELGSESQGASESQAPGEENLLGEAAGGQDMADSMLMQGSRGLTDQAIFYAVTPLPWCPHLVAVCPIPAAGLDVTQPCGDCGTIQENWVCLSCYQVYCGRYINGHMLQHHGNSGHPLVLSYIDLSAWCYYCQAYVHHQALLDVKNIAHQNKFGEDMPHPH

NCI-H929 = assay: Antiproliferative activity against human NCI-H929 cells assessed as inhibition of cell growth by MTT assay; assay type: functional, cell-based
MCF7 [11] = assay: Antiproliferative activity against human MCF7 cells assessed as inhibition of cell growth by MTT assay; assay type: functional, cell-based
U-937 = assay: Antiproliferative activity against human U-937 cells assessed as inhibition of cell growth by MTT assay; assay type: functional, cell-based
U-266 = assay: Antiproliferative activity against human U-266 cells assessed as inhibition of cell growth by MTT assay; assay type: functional, cell-based
Histone deacetylase 1 = Histone deacetylase 1 (Homo sapiens, UniProt Q13547); assay: Inhibition of HDAC1 (unknown origin)
SU-DHL-6 = assay: Cytotoxicity against human SU-DHL-6 cells assessed as inhibition of cell growth by SRB assay; assay type: functional, cell-based
SNU-398 = assay: Cytotoxicity against human SNU-398 cells assessed as inhibition of cell growth by SRB assay; assay type: functional, cell-based
Ramos = assay: Cytotoxicity against human Ramos cells assessed as inhibition of cell growth by SRB assay; assay type: functional, cell-based
[12] = Cytotoxicity against African green monkey Vero cells assessed as inhibition of cell growth by MTT assay; assay type: toxicity, cell-based, Chlorocebus sabaeus
HepG2 [13] = assay: Cytotoxicity against human HepG2 cells assessed as inhibition of cell growth by MTT assay; assay type: functional, cell-based
A549 [14] = assay: Cytotoxicity against human A549 cells assessed as inhibition of cell growth by MTT assay; assay type: functional, cell-based
PC-3 [15] = assay: Cytotoxicity against human PC-3 cells assessed as inhibition of cell growth by MTT assay; assay type: functional, cell-based
[16] = Cytotoxicity against human RWPE-1 cells assessed as inhibition of cell growth by MTT assay; assay type: toxicity, cell-based
MDA-MB-231 = assay: Cytotoxicity against human MDA-MB-231 cells assessed as inhibition of cell growth by MTT assay; assay type: functional, cell-based
Plasmodium falciparum [17] = assay: Antimalarial activity against erythrocytic stage of chloroquine susceptible Plasmodium falcipuram 3D7 measured after 3 days by HRP2-ELISA; assay type: functional, organism-based; settings: 3D7, 72 h
Plasmodium falciparum [18] = assay: Antimalarial activity against erythrocytic stage of chloroquine resistant Plasmodium falcipuram Dd2 measured after 3 days by HRP2-ELISA; assay type: functional, organism-based; settings: Dd2, 72 h
MCF7 [19] = assay: cells; assay type: functional, cell-based; settings: Homo sapiens, MCF7, 72 h
Description: Cytotoxicity against human MCF7 cells assessed as inhibition of cell growth measured after 72 hrs by MTT assay

HepG2 [20] = assay: Cytotoxicity against human HepG2 cells assessed as inhibition of cell growth measured after 72 hrs by MTT assay; assay type: functional, cell-based; settings: HepG2, 72 h
U2OS = assay: cells; assay type: functional, cell-based; settings: Homo sapiens, 72 h
Description: Cytotoxicity against human U2OS cells assessed as inhibition of cell growth measured after 72 hrs by MTT assay

Plasmodium berghei = assay: Antimalarial activity against hepatic stage of Plasmodium berghei infected in human Huh-7 cells preincubated for 1 hr followed by parasite addition and measured after 48 hrs by bioluminescence assay; assay type: functional, organism-based

Histone deacetylase 1, sequence (Q13547 whole entry): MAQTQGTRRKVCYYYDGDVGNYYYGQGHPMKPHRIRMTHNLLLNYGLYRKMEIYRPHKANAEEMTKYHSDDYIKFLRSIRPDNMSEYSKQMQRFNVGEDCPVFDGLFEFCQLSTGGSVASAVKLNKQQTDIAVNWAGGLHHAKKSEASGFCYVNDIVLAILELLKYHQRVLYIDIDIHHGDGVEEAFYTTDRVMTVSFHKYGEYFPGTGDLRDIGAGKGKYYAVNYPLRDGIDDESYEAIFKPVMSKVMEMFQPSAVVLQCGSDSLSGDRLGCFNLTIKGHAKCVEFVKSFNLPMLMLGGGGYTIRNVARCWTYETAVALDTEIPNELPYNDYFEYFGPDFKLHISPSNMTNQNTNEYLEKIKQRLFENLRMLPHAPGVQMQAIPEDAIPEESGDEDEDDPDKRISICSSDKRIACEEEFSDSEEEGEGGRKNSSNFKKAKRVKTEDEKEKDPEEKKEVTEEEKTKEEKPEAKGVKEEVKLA
Histone deacetylase 2, sequence (Q92769 whole entry): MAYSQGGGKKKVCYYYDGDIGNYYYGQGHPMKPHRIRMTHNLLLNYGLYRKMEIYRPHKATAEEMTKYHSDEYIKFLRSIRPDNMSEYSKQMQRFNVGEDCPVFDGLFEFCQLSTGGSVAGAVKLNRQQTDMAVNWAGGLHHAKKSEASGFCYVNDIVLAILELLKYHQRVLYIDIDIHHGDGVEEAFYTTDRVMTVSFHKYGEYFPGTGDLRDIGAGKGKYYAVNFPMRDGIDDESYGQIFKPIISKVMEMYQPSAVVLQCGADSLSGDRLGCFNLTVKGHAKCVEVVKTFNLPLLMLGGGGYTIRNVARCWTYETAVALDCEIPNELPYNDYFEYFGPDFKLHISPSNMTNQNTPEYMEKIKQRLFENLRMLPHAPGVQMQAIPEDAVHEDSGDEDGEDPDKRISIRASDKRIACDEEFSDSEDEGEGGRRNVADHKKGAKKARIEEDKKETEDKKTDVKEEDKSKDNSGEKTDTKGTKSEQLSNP
Histone deacetylase 8, sequence (Q9BY41 whole entry): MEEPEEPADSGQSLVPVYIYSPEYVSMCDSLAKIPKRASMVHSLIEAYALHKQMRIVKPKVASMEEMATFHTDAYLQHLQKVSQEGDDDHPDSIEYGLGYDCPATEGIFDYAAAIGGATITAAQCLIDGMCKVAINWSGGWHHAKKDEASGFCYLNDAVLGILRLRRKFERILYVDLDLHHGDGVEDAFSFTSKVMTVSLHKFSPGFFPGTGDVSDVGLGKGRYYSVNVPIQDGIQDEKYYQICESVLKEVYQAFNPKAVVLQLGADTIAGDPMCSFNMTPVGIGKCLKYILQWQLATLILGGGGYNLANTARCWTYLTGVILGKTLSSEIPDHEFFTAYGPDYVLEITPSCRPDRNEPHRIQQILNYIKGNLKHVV
Histone deacetylase 3, sequence (O15379 whole entry): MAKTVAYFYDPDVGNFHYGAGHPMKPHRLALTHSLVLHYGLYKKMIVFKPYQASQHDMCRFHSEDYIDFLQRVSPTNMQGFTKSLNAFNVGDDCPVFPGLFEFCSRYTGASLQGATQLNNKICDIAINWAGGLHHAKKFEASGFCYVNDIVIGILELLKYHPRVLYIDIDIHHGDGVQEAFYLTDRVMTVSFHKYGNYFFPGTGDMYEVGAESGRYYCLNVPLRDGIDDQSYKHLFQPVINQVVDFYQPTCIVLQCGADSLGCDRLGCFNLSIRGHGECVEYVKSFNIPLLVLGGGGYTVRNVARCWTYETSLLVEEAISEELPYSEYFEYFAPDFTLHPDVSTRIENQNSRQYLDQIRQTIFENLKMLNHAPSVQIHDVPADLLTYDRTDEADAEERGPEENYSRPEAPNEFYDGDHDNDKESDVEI

For `O=C(/C=C/c1ccc(S(=O)(=O)Nc2ccccc2C(F)(F)F)cc1)NO`, the IC50 [1] was 770 nM and the IC50 (HL-60) was 770 nM.
For `O=C(/C=C/c1ccc(CN2C/C(=N\O)c3cc(Cl)ccc32)cc1)NO`, the “Ratio IC50” value (ASPC1 [2]) was 1.8, the IC50 (SW-620 [3]) was 470 nM and the “Ratio IC50” value (PC-3 [4]) was 1.8. The “Ratio IC50” value (SW-620 [5]) was 1.8, the IC50 (ASPC1 [6]) was 470 nM and the IC50 (PC-3 [7]) was 470 nM. It also gave an IC50 (Histone deacetylase 2) of 86 nM.
With `CCn1c(C)c(CCNS(=O)(=O)c2ccc(/C=C/C=C/C(=O)NO)cc2)c2ccccc21` the GI50 (Hep 3B2) was 20 nM, the GI50 (A549 [8]) was 20 nM and the IC50 (Histone deacetylase) was 3.3 nM. For the same compound, the GI50 (HCT-116) was 20 nM, the Ratio IC50 [9] was 35 and the GI50 (PC-3 [7]) was 20 nM.
For `O=C(NO)c1cn(C2CCN(C(=O)Cc3ccc4ccccc4c3)CC2)nn1`, the IC50 (Histone deacetylase 8) was 1000 nM, the IC50 (SH-SY5Y) was 1200 nM and the IC50 (Histone deacetylase 3) was 1000 nM. The IC50 [10] was 1000 nM, the IC50 (NCI-H929) was 1200 nM and the IC50 (HL-60) was 1200 nM. The IC50 (MCF7 [11]) was 1200 nM, the IC50 (U-937) was 1200 nM and the IC50 (U-266) was 1200 nM. The IC50 (Histone deacetylase 1) was 1000 nM and the IC50 (Histone deacetylase 2) was 1000 nM.
Work on `CNC(=O)c1cc(Oc2ccc(NC(=O)Nc3ccc(Cl)c(C(F)(F)F)c3)cc2)ccn1` [SORAFENIB] yielded an IC50 (SU-DHL-6) of 1 nM, an IC50 (SNU-398) of 1 nM and an IC50 (Ramos) of 1 nM.
`N#Cc1cccc(-c2cn(CCCCCCn3cccc(/C=C/C(=O)NO)c3=O)nn2)c1` showed an IC50 [10] of 49 nM, an IC50 [12] greater than 50000 nM and an IC50 (HepG2 [13]) of 600 nM. It also gave an IC50 (A549 [14]) of 600 nM, an IC50 (PC-3 [15]) of 600 nM and an IC50 [16] greater than 50000 nM. It also gave an IC50 (Histone deacetylase 1) of 35 nM and an IC50 (MDA-MB-231) of 600 nM.
With `COc1cc(NC(C)CCCCCNC(=O)CCC(=O)NO)c2ncccc2c1` (centres undefined) the IC50 (Plasmodium falciparum [17]) was 300 nM, the IC50 (Plasmodium falciparum [18]) was 300 nM and the IC50 (MCF7 [19]) was 1600 nM. It also gave an IC50 (HepG2 [20]) of 1600 nM, an IC50 (U2OS) of 3300 nM and an IC50 (Plasmodium berghei) of 300 nM.
`O=C(NO)c1cn(C2CCN(C(=O)c3ccc(-c4ccccc4)cc3)CC2)nn1` showed an IC50 (SH-SY5Y) of 1200 nM, an IC50 (NCI-H929) of 1200 nM and an IC50 (HL-60) of 1200 nM. It also gave an IC50 (MCF7 [11]) of 1200 nM, an IC50 (U-937) of 1200 nM and an IC50 (U-266) of 1200 nM.
